# From article PMC9025560, “A Comparison of Evans Blue and 4-(p-Iodophenyl)butyryl Albumin Binding Moieties on an Integrin αvβ6 Binding Peptide” (Pharmaceutics, 2022)
# Where two headings read alike, the source gives them in different places.
# Experiments:
# [1] = Stability in human serum at 37 °C; format: in vitro ADME; conditions: read-out: Stability in human serum, % intact
# Experimental: For serum stability, mouse serum or human serum (0.5 mL, both purchased from Sigma-Aldrich) was combined with an aliquot of each of the peptides [^64Cu]1 and [^64Cu]2 (≤25 μL, 14.8–22.2 MBq) and incubated at 37 °C. At each time point (1, 4, and 24 h) an aliquot (50–200 μL) was taken, proteins precipitated with ethanol, and removed by pelleting at 1500 (RCF) for 4 min. The ethanol solution was diluted with water (1 mL) and analyzed by RP-HPLC as previously described.
# [2] = Blocking biodistribution with pre-administered metal free peptide; format: in vivo, mice; conditions: female, athymic nu/nu-nude, mouse, intravenous, total radioactivity, 4 h p.i., metal free peptide 10 min before, n = 1
# Experimental: For blocking studies, the metal free peptides 1 or 2 (~220 nmol, 1.3 mg in 100 μL PBS), respectively, were injected i.v. (n = 1/peptide) as described above 10 min prior to the injection of matching radiolabeled [^64Cu]1 or [^64Cu]2 (3.7–5.55 MBq, 100 μL PBS). After a conscious 4 h uptake period, the animals were anesthetized, sacrificed, tissues rapidly collected, and analyzed as described above. Decay-corrected radioactivity concentrations are expressed as a percentage of injected dose per gram of tissue (% ID/g) (Figure S23).
# BxPC-3 xenograft tumors = assay: Biodistribution in mice bearing BxPC-3 xenograft tumors; format: in vivo
# Procedure, shortened: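 Female athymic nu/nu mice bearing subcutaneous BxPC-3 (integrin αvβ6-positive) flank tumors 0.5–1 cm, given [^64Cu]-labelled peptides (3.7–5.55 MBq) i.v. via tail vein. Tissues taken at 4, 24, 48 and 72 h p.i. and γ-counted; decay-corrected uptake reported as % ID/g, mean ± SD.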
smiles,measurement,setting,value
"CC(C)C[C@H](NC(=O)[C@H](CC(=O)O)NC(=O)CNC(=O)[C@H](CCCNC(=N)N)NC(=O)[C@H](CC(C)C)NC(=O)[C@H](CC(N)=O)NC(=O)[C@@H]1CCCN1C(=O)[C@@H](NC(=O)[C@H](C)NC(=O)[C@H](CC(N)=O)NC(=O)CCOCCOCCOCCOCCOCCOCCOCCOCCOCCOCCOCCOCCOCCOCCOCCOCCOCCOCCOCCOCCOCCOCCOCCOCCOCCOCCOCCOCCNC(=O)[C@H](CCCCNC(=O)[C@H](CC(=O)O)NC(=O)CCCNC(=O)CCCc1ccc(I)cc1)NC(=O)CN1CCN(CC(=O)O)CCN(CC(=O)O)CCN(CC(=O)O)CC1)C(C)C)C(=O)N[C@@H](CCC(N)=O)C(=O)N[C@H](C(=O)N[C@@H](CC(C)C)C(=O)N[C@@H](C)C(=O)N[C@@H](CCC(N)=O)C(=O)N[C@@H](CCCNC(=N)N)C(=O)N[C@H](C(=O)N[C@@H](C)C(=O)N[C@@H](CCCNC(=N)N)C(=O)N[C@H](C(=O)NCCOCCOCCOCCOCCOCCOCCOCCOCCOCCOCCOCCOCCOCCOCCOCCOCCOCCOCCOCCOCCOCCOCCOCCOCCOCCOCCOCCOCCC(N)=O)[C@@H](C)O)C(C)C)C(C)C [[^64Cu]2, [^64Cu]Cu DOTA-IP-αvβ6-BP, metal not drawn]",remaining at 1 h,[1]; 1 h,99%
same,remaining at 4 h,[1]; 4 h,93%
same,remaining at 24 h,[1]; 24 h,90%
same,tissue uptake at 4 h,"[2]; BxPC-3 tumor, read-out: BxPC-3 Tumor uptake, blocked",2.89 %ID/g
same,tissue uptake at 4 h,"[2]; blood, read-out: Blood uptake, blocked",3.98 %ID/g
same,tissue uptake at 4 h,"[2]; bone, read-out: Bone uptake, blocked",0.5 %ID/g
same,tissue uptake at 4 h,"[2]; brain, read-out: Brain uptake, blocked",0.09 %ID/g
same,tissue uptake at 4 h,"[2]; gall bladder, read-out: Gall Bladder uptake, blocked",1.64 %ID/g
same,tissue uptake at 4 h,"[2]; heart, read-out: Heart uptake, blocked",1.31 %ID/g
same,tissue uptake at 4 h,"[2]; kidneys, read-out: Kidneys uptake, blocked",16.8 %ID/g
same,tissue uptake at 4 h,"[2]; large intestines, read-out: Lg. Intestines uptake, blocked",1.26 %ID/g
same,tissue uptake at 4 h,"[2]; liver, read-out: Liver uptake, blocked",2.04 %ID/g
same,tissue uptake at 4 h,"[2]; lung, read-out: Lung uptake, blocked",2.08 %ID/g
same,tissue uptake at 4 h,"[2]; muscle, read-out: Muscle uptake, blocked",0.5 %ID/g
same,tissue uptake at 4 h,"[2]; pancreas, read-out: Pancreas uptake, blocked",0.76 %ID/g
same,tissue uptake at 4 h,"[2]; skin, read-out: Skin uptake, blocked",1.26 %ID/g
same,tissue uptake at 4 h,"[2]; small intestines, read-out: Sm. Intestines uptake, blocked",1.18 %ID/g
same,tissue uptake at 4 h,"[2]; stomach, read-out: Stomach uptake, blocked",1.2 %ID/g
same,Tumor-Blood ratio,BxPC-3 xenograft tumors; 4 h p.i.,> 4/1
same,Tumor-Kidney ratio,BxPC-3 xenograft tumors; 4 h p.i.,0.23 ± 0.02
same,Tumor-Lg Intestines ratio,BxPC-3 xenograft tumors; 4 h p.i.,0.78 ± 0.10
same,Tumor-Liver ratio,BxPC-3 xenograft tumors; 4 h p.i.,3.2–4.9
same,Tumor-Muscle ratio,BxPC-3 xenograft tumors; 4 h p.i.,> 8/1
same,Tumor-Sm Intestines ratio,BxPC-3 xenograft tumors; 4 h p.i.,0.80 ± 0.07
same,Tumor-Stomach ratio,BxPC-3 xenograft tumors; 4 h p.i.,0.43 ± 0.07
same,BxPC-3 Tumor uptake,"BxPC-3 xenograft tumors; 4 h p.i., i.v.",> 7.5 % ID/g
same,Kidneys uptake,"BxPC-3 xenograft tumors; 4 h p.i., i.v.",33.6 ± 5.4 % ID/g
same,Stomach uptake,"BxPC-3 xenograft tumors; 4 h p.i., i.v.",18.1 ± 2.9 % ID/g
same,Tumor-Blood ratio,"BxPC-3 xenograft tumors; 4 h p.i., listed as [64Cu]2",6.15 ± 0.47
same,Tumor-Liver ratio,"BxPC-3 xenograft tumors; 4 h p.i., listed as [64Cu]2",4.89 ± 0.63
same,Tumor-Muscle ratio,"BxPC-3 xenograft tumors; 4 h p.i., listed as [64Cu]2",8.16 ± 2.41
same,Tumor-Blood ratio,BxPC-3 xenograft tumors; 24 h p.i.,21.86 ±5.94
same,Tumor-Kidney ratio,BxPC-3 xenograft tumors; 24 h p.i.,0.20 ± 0.06
same,Tumor-Lg Intestines ratio,BxPC-3 xenograft tumors; 24 h p.i.,0.81 ±0.24
same,Tumor-Liver ratio,BxPC-3 xenograft tumors; 24 h p.i.,2.72 ± 0.62
same,Tumor-Muscle ratio,BxPC-3 xenograft tumors; 24 h p.i.,5.87 ±2.04
same,Tumor-Sm Intestines ratio,BxPC-3 xenograft tumors; 24 h p.i.,0.97 ±0.27
same,Tumor-Stomach ratio,BxPC-3 xenograft tumors; 24 h p.i.,0.39 ±0.09
same,Tumor-Blood ratio,BxPC-3 xenograft tumors; 48 h p.i.,22.11 ± 14.41
same,Tumor-Kidney ratio,BxPC-3 xenograft tumors; 48 h p.i.,0.35 ± 0.14
same,Tumor-Lg Intestines ratio,BxPC-3 xenograft tumors; 48 h p.i.,1.10 ± 0.47
same,Tumor-Liver ratio,BxPC-3 xenograft tumors; 48 h p.i.,2.46 ± 0.97
same,Tumor-Muscle ratio,BxPC-3 xenograft tumors; 48 h p.i.,6.68 ± 2.42
same,Tumor-Sm Intestines ratio,BxPC-3 xenograft tumors; 48 h p.i.,1.81 ± 0.61
same,Tumor-Stomach ratio,BxPC-3 xenograft tumors; 48 h p.i.,0.67 ± 0.27
same,Tumor-Blood ratio,BxPC-3 xenograft tumors; 72 h p.i.,28.82 ± 2.64
same,Tumor-Kidney ratio,BxPC-3 xenograft tumors; 72 h p.i.,0.44 ± 0.14
same,Tumor-Lg Intestines ratio,BxPC-3 xenograft tumors; 72 h p.i.,1.63 ±0.32
same,Tumor-Liver ratio,BxPC-3 xenograft tumors; 72 h p.i.,3.77 ± 0.72
same,Tumor-Muscle ratio,BxPC-3 xenograft tumors; 72 h p.i.,6.70 ±1.74
same,Tumor-Sm Intestines ratio,BxPC-3 xenograft tumors; 72 h p.i.,4.01 ±1.10
same,Tumor-Stomach ratio,BxPC-3 xenograft tumors; 72 h p.i.,1.55 ±0.08
same,Fold increase in tumor accumulation over non-ABM [64Cu]Cu DOTA-αvβ6-BP,BxPC-3 xenograft tumors; BxPC-3 tumor model,> 3 fold
